The first experiment has as its target T1, human GAL3 receptor (Homo sapiens, UniProt O60755).
T1 construct: expressed in transfected cells
T1 sequence (O60755 1-368): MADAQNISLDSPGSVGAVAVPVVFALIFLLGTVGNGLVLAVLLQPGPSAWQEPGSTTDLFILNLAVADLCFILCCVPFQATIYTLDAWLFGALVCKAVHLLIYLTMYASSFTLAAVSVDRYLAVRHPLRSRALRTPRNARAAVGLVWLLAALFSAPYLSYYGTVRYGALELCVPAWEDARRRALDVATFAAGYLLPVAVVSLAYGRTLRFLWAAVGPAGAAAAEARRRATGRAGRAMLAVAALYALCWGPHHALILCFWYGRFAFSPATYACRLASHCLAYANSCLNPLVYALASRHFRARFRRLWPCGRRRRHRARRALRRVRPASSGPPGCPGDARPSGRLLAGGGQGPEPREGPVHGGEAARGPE
The experiment in a line: Radioligand binding at cloned human GAL3 receptor. Particulars: indolones, cloned human receptor; read-out: Ki GalR3. How it is done: The present invention provides for a method of determining the binding affinity of a GAL3 antagonist, wherein the GAL3 antagonist is dissolved in a "suitable solvent". A "suitable solvent" means one which permits the measurement of binding affinity of the GAL3 antagonist to the human GAL3 receptor at concentrations less than 1 µM, preferably less than 100 nM. Examples of solvents include, but are not limited to, DMSO, ethanol, N,N-dimethylacetamide, or water. For indolones, the preferred solvent is 3% DMSO (final concentration in the assay). For pyrimidines, the preferred solvent is 1% ethanol/0.09% polypuronic acid F-127 (final concentration in the assay). For any other type of compounds, the preferred solvent is the solvent which permits the measurement of binding affinity of a GAL3 antagonist at the lowest concentration. Once a suitable solvent is ascertained for the binding assay of the human GAL3 receptor, the same solvent is used in assays to determine the binding affinity at the GAL1 receptor, the serotonin transporter, the norepinephrine transporter, and the dopamine transporter. A solvent of 0.4% DMSO is used in the central monoamine oxidase enzyme assay.
The binding properties of the pyrimidines of the present invention were evaluated at the cloned human galanin receptors, GAL1, GAL2, and GAL3, using protocols described herein.
The binding properties of the indolones of the present invention were evaluated at the cloned human galanin receptors, GAL1, GAL2, and GAL3, using protocols described herein.
LM(tk-) cells were stably transfected with the human GAL1 or GAL3 receptor. CHO cells were stably transfected with the human GAL2 receptor.
cDNAs for the human and rat GAL1, and human and rat GAL3 receptors were transfected with a G-418 resistant gene into the mouse fibroblast LM(tk-) cell line by a calcium phosphate transfection method (Cullen, 1987). Stably transfected cells were selected with G-418. Human and rat GAL2 receptors were similarly transfected into CHO cells.
Membranes were harvested from stably transfected LM(tk-) cells. Adherent cells were washed twice in ice-cold phosphate buffered saline (138 mM NaCl, 8.1 mM Na2HPO4, 2.5 mM KCl, 1.2 mM KH2PO4, 0.9 mM CaCl2, 0.5 mM MgCl2, pH 7.4) and lysed by sonication in ice-cold sonication buffer (20 mM Tris-HCl, 5 mM EDTA, pH 7.7). Large particles and debris were cleared by low speed centrifugation (200 x g, 5 min, 4°C). Membranes were collected from the supernatant fraction by centrifugation (32,000 x g, 18 min, 4°C), washed with ice-cold hypotonic buffer, and collected again by centrifugation (32,000 x g, 18 min, 4°C). The final membrane pellet was resuspended by sonication into a small volume of ice-cold binding buffer (-1 ml for every 5 plates: 10 mM NaCl, 20 mM HEPES, 0.22 mM KH2PO4, 1.26 mM CaCl2, 0.81 mM MgSO4, pH 7.4). Protein concentration was measured by the Bradford method (Bradford, 1976) using Bio-Rad Reagent, with bovine serum albumin as a standard. Membranes were held on ice for up to one hour and used fresh, or flash frozen and stored in liquid nitrogen. Membranes were prepared similarly from CHO cells.
Galanin Recentors: Binding assays were performed according to the following published methods: human GAL3 (PCT International Publication No. WO 98/15570), human GAL1 (PCT International Publication No. WO 95/2260), human GAL2 (PCT International Publication No. WO 97/26853).
Binding data were analyzed using nonlinear regression and statistical techniques available in the GraphPAD Prism package (San Diego, CA). Enzymatic assay data were derived from a standard curve of reference compound data.
In the case of `N#Cc1cccc(/N=C2\C(=O)N(c3ccccc3)c3ccccc32)c1` [Example 288, 3-{[(3Z)-2-OXO-1-PHENYL-1,2-DIHYDRO-3H-INDOL-3-YLIDENE]AMINO}BENZONITRILE], the Ki was 39 nM.

For the molecule `Cc1cc(/N=C2\C(=O)N(c3ccsc3)c3ccccc32)ccc1Cl` [Example 259], the Ki turned out to be 55 nM.

`O=C1/C(=N\c2ccc(Cl)cc2)c2ccccc2N1c1ccsc1` [Example 261, (3Z)-3-[(4-CHLOROPHENYL)IMINO]-1-(3-THIENYL)-1,3-DIHYDRO-2H-INDOL-2-ONE]: the Ki is 34 nM. Turning to `O=C1/C(=N\c2ccc(C3CCCCC3)cc2)c2ccccc2N1c1ccsc1` [Example 296, (3Z)-3-[(4-CYCLOHEXYLPHENYL)IMINO]-1-(3-THIENYL)-1,3-DIHYDRO-2H-INDOL-2-ONE], the Ki came out at 82 nM. Take `Cc1noc(C)c1CN1C(=O)/C(=N\c2cc(Cl)cc(Cl)c2)c2ccccc21` [Example 280]: the Ki was found to be 521 nM. Still for that read-out and setting: the value for `O=C1/C(=N\c2ccc(I)cc2)c2ccccc2N1c1ccccc1` [Example 283, (3Z)-3-[(4-IODOPHENYL)IMINO]-1-PHENYL-1,3-DIHYDRO-2H-INDOL-2-ONE] was 33 nM; that for `O=C1/C(=N\c2cccc3ncccc23)c2ccccc2N1c1ccccc1` [Example 282, (3Z)-1-PHENYL-3-(5-QUINOLINYLIMINO)-1,3-DIHYDRO-2H-INDOL-2-ONE] was 333 nM; that for `O=C1/C(=N\c2ccc(Cl)c(Cl)c2)c2ccccc2N1c1cccc(C(F)(F)F)c1` [Example 256, (3Z)-3-[(3,4-DICHLOROPHENYL)IMINO]-1-[3-(TRIFLUOROMETHYL)PHENYL]-1,3-DIHYDRO-2H-INDOL-2-ONE] was 18 nM. With `O=C1/C(=N\c2ccc(-c3ccccc3)cc2)c2ccccc2N1c1ccsc1` [Example 265, (3Z)-3-([1,1'-BIPHENYL]-4-YLIMINO)-1-(3-THIENYL)-1,3-DIHYDRO-2H-INDOL-2-ONE], the Ki was found to be 80 nM. On to `Cc1ccc(C(F)(F)F)cc1/N=C1\C(=O)N(c2ccccc2)c2ccccc21` [Example 289, (3Z)-3-{[2-METHYL-5-(TRIFLUOROMETHYL)PHENYL]IMINO}-1-PHENYL-1,3-DIHYDRO-2H-INDOL-2-ONE], for which the Ki was 59 nM. As to `CCOC(=O)c1cccc(/N=C2\C(=O)N(c3ccsc3)c3ccccc32)c1` [Example 266, ETHYL 3-{[(3Z)-2-OXO-1-(3-THIENYL)-1,2-DIHYDRO-3H-INDOL-3-YLIDENE]AMINO}BENZOATE], the Ki came out at 236 nM. For the molecule `O=C1/C(=N\c2cccc(C(F)(F)F)c2)c2ccccc2N1C1CCOCC1` [Example 300, (3Z)-1-TETRAHYDRO-2H-PYRAN-4-YL-3-{[3-(TRIFLUOROMETHYL)PHENYL]IMINO}-1,3-DIHYDRO-2H-INDOL-2-ONE], the Ki came out at 742 nM.

Staying with this experiment, now noted: pyrimidines, cloned human receptor; read-out: Ki GalR3.
`Cc1ccc(Nc2cc(N(C)C)nc(N3CCN(Cc4ccco4)CC3)n2)cc1` [Example 231]: the Ki stood at 136 nM. For the molecule `COc1ccccc1CCNc1nc(Nc2ccc(C)cc2)cc(N(C)C)n1` [Example 150], the Ki was determined as 180 nM. For `Cc1ccc(Nc2cc(N(C)C)nc(N3CCN(CCc4ccccc4)CC3)n2)cc1` [Example 159], the Ki was 180 nM. Turning to `CN(C)c1cc(NC2CCC(OCc3ccccc3)CC2)nc(N2CCN(Cc3ccccc3)CC2)n1` (stereo not drawn) [Example 152], the Ki was determined as 172 nM.

On to `CN(C)c1cc(Nc2ccccc2C(C)(C)C)nc(N2CCN(c3ccccn3)CC2)n1` [Example 212], for which the Ki was 231 nM.

As to `COc1cccc(Nc2cc(N(C)C)nc(N3CCN(c4ccccn4)CC3)n2)c1` [Example 245], the inhibition constant (Ki) amounted to 537 nM. As to `CN(C)c1cc(Nc2ccc3c(c2)CCC3)nc(N2CCN(c3ccccn3)CC2)n1` [Example 123], the Ki turned out to be 61 nM. In the case of `CN(C)c1cc(Nc2ccc(Br)cc2F)nc(N2CCN(c3ccccn3)CC2)n1` [Example 199], the Ki was determined as 199 nM.

For the molecule `CCCCCCCc1ccc(Nc2cc(N(C)C)nc(N3CCN(c4ccccn4)CC3)n2)cc1` [Example 189], the Ki stood at 26 nM. For `COc1cccc(Nc2cc(N(C)C)nc(N(C)CCc3ccccn3)n2)c1` [Example 177], the inhibition constant Ki was found to be 142 nM.

As to `Cc1ccc(Nc2cc(N(C)C)nc(N3CCN(Cc4ccccc4)CC3)n2)cc1` [Example 253], the Ki is 49 nM. For `CN(C)c1cc(Nc2ccc(Br)c(C(F)(F)F)c2)nc(N2CCN(c3ccccn3)CC2)n1` [Example 133], the Ki was 60 nM. Still for that read-out and setting: with `COc1ccc(OC)c(Nc2cc(N(C)C)nc(N3CCN(Cc4ccccc4)CC3)n2)c1` [Example 227] the figure was 600 nM; with `Cc1ccc(Nc2cc(N3CCCCC3)nc(N3Cc4cccc5cccc(c45)C3)n2)cc1` [Example 43], 107 nM.

In the case of `CN(C)c1cc(Nc2ccccc2Cc2ccccc2)nc(N2CCN(c3ccccn3)CC2)n1` [Example 186], the Ki is 69 nM. Same read-out and setting: with `CN(C)c1cc(Nc2cccc(OC(F)(F)F)c2)nc(N2CCN(c3ccccn3)CC2)n1` [Example 207] the figure was 58 nM; with `Cc1ccc(Nc2cc(N(C)C)nc(N(C)CCc3ccccc3)n2)cc1` [Example 248], 33 nM; with `CN(C)c1cc(Nc2ccc(SC(F)(F)F)c(Cl)c2)nc(N2CCN(c3ccccn3)CC2)n1` [Example 134], 25 nM. Consider `CN(C)c1cc(Nc2cccc(OCc3ccccc3)c2)nc(N2CCN(c3ccccn3)CC2)n1` [Example 115], for which the Ki is 13 nM.

Take `Cc1ccc(Nc2cc(N(C)C)nc(N3CCN(Cc4cccs4)CC3)n2)cc1` [Example 174]: the Ki turned out to be 325 nM. Regarding `CN(C)c1cc(Nc2ccccc2)nc(Nc2ccccc2)n1` [Example 50], the Ki was 699 nM. Consider `CN(C)c1cc(Nc2ccc(C(F)(F)F)cc2)nc(N2CCN(Cc3ccccc3)CC2)n1` [Example 229], for which the inhibitory constant (Ki) worked out at 37 nM. In the case of `CN(C)c1cc(Nc2ccc(Cl)cc2Cl)nc(N2CCN(c3ccccn3)CC2)n1` [Example 205], the Ki amounted to 193 nM. As to `Cc1ccc(Nc2cc(N(C)C)nc(NCCNc3ccccc3)n2)cc1` [Example 176], the Ki was found to be 608 nM.

As for `CN(C)c1cc(Nc2ccc(C(F)(F)F)cc2Cl)nc(N2CCN(c3ccccn3)CC2)n1` [Example 136], the Ki worked out at 25 nM. Regarding `Cc1ccc(Nc2cc(N3CCCCC3)nc(N(C)CCc3c[nH]c4ccccc34)n2)cc1Cl` [Example 16], the Ki was 33 nM. Same read-out and setting: the value for `COc1cc(Nc2cc(N(C)C)nc(N3CCN(Cc4ccccc4)CC3)n2)cc(C(F)(F)F)c1` [Example 225] was 66 nM; that for `COc1cccc(Nc2cc(N(C)C)nc(N3CCN(Cc4ccccn4)CC3)n2)c1` [Example 144] was 529 nM; that for `Cc1ccc(Nc2cc(N(C)C)nc(NCCc3ccccc3)n2)cc1` [Example 250] was 119 nM. The same measure, in the same setting: the value for `COc1ccc(CN2CCN(c3nc(Nc4ccc(C)cc4)cc(N(C)C)n3)CC2)cc1` [Example 235] was 114 nM; that for `Cc1ccc(Nc2cc(N3CCCCC3)nc(N3CCc4ccccc43)n2)cc1` [Example 39] was 128 nM; that for `Cc1ccc(Nc2cc(N(C)C)nc(NCCc3cccs3)n2)cc1` [Example 237] was 404 nM. Regarding `CN(C)c1cc(Nc2ccc(Cl)cc2)nc(N2CCN(c3ccccn3)CC2)n1` [Example 194], the inhibition constant (Ki) was 248 nM.
